The record followed here is US11713335B2, “Aminocoumarin compounds and methods of their use” (President and Fellows of Harvard College, priority 2018, dated 2023).

SMILES strings stand for the structures. ≈ marks a conversion by molar mass, not a printed value. A value given as a limit tells only on which side of the number the result lay.

One test relates to E. coli MC4100. Briefly: Minimal inhibitory concentration, E. coli MC4100. In kind it is cell-based. Conditions: 16 hour minimal inhibitory concentration at 37° C.; read-out: MIC (μM) E. coli MC4100 ara+. The method, boiled down: (§1)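 Broth microdilution, 2-fold series from DMSO stock; inoculum = saturated overnight culture (LB; TSA for S. aureus) diluted 1:100 then 1:100. 37 °C, 16 h, no shaking. OD600 read-out; MIC = lowest conc. inhibiting growth (µM).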

A further test concerns A. baumannii 19606. Briefly: Minimal inhibitory concentration, A. baumannii 19606. In kind it is cell-based. Conditions: 16 hour minimal inhibitory concentration at 37° C.; read-out: MIC (μM) A. baumannii 19606. The method, boiled down:
as §1

A further test deals with E. coli 25922. The test is described as follows: Minimal inhibitory concentration, E. coli 25922. The test is classed as cell-based. Conditions: 16 hour minimal inhibitory concentration at 37° C.; read-out: MIC (μM) E. coli 25922. The method, boiled down: as §1
For a further test, the system named is E. cloacae 13047. Briefly: Minimal inhibitory concentration, E. cloacae 13047. The test is classed as cell-based. Conditions: 16 hour minimal inhibitory concentration at 37° C.; read-out: MIC (μM) E. cloacae 13047. The method, boiled down: as §1
Another test relates to K. pneumoniae 700721. The test is described as follows: Minimal inhibitory concentration, K. pneumoniae 700721. As to conditions: 16 hour minimal inhibitory concentration at 37° C.; read-out: MIC (μM) K. pneumoniae 700721. In kind it is cell-based. The method, boiled down:
as §1

The test system of the next test is S. aureus MW2. The test is described as follows: Minimal inhibitory concentration, S. aureus MW2. As to conditions: 16 hour minimal inhibitory concentration at 37° C.; read-out: MIC (μM) S. aureus MW2 (MRSA). The test is classed as cell-based. The method, boiled down: as §1
The test system of a further test is S. aureus RN4220. Briefly: Minimal inhibitory concentration, S. aureus RN4220. In kind it is cell-based. As to conditions: 16 hour minimal inhibitory concentration at 37° C.; read-out: MIC (μM) S. aureus RN4220. The method, boiled down: as §1
The test system of another test is WT E. coli. Briefly: Minimal inhibitory concentration in wild-type E. coli. Conditions: wild-type E. coli, 37° C., 16 hours; read-out: MIC (μM) in WT E. coli. In kind it is cell-based, Escherichia coli. The method, boiled down: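 Broth microdilution: saturated LB overnight culture diluted 1:100 twice, compound serially two-fold diluted across the plate from DMSO stock. Static incubation 16 hours at 37° C, OD600 read; MIC taken as lowest concentration inhibiting growth.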

By MIC is commonly meant the smallest concentration in the dilution series that meets the test's criterion for growth inhibition.

As for `CO[C@@H]1[C@@H](OC(N)=O)[C@@H](O)[C@H](Oc2ccc3c(O)c(NC(=O)c4cccc(-c5ccccc5C(C)C)c4)c(=O)oc3c2C)OC1(C)C` [Compound 49], the MIC in the test with E. coli MC4100 is on record as above 200 µM; in the test with A. baumannii 19606 it was above 50 µM; with E. coli 25922, above 200 µM; with E. cloacae 13047, above 100 µM; in the test on K. pneumoniae 700721 it was above 100 µM; with S. aureus MW2, 5 µM (≈ 3.23 µg/mL). In addition, the MIC is reported as 10 µM (≈ 6.47 µg/mL) in the test on S. aureus RN4220 and above 300 µM in the test with WT E. coli.

On to `CO[C@@H]1[C@@H](OC(N)=O)[C@@H](O)[C@H](Oc2ccc3c(O)c(NC(=O)c4ccc5c(ccn5C)c4)c(=O)oc3c2C)OC1(C)C` [Compound 72], for which the MIC in the test on E. coli MC4100 is above 200 µM; in the test on A. baumannii 19606, above 50 µM; with E. coli 25922, above 200 µM; in the test on E. cloacae 13047 it was above 100 µM; with K. pneumoniae 700721, above 100 µM; in the test with S. aureus MW2, 43 µM (≈ 25 µg/mL). The MIC is reported as 86 µM (≈ 50 µg/mL) with S. aureus RN4220 and above 300 µM in the test on WT E. coli.
